Data published in the supplement of paper PMC10307832.

Tests used:
Test in all cases: relative viability (nuclei count vs DMSO), 5 days (fraction); higher = more cells survive
[1] = compound: CN(C)C[C@@H]1CCn2cc(c3ccccc32)C2=C(C(=O)NC2=O)c2cn(c3ccccc23)CCO1 [Ruboxistaurin] + CS(=O)(=O)CCNCc1ccc(-c2ccc3ncnc(Nc4ccc(OCc5cccc(F)c5)c(Cl)c4)c3c2)o1 [Lapatinib] (partner 2 µM)
Summary of the method: (§1)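 Lung cancer cell lines were pin-tool dosed in 1536-well plates on the day after seeding, with either a lone drug or a fixed anchor-drug dose plus five library-drug doses (not always all listed) in √10 steps. Nuclei were counted on 4× images after 5 days. Relative viability is the ratio of treated-well to vehicle-well nuclei counts, with each value a median of duplicate plates.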

[2] = compound: CN(C)C[C@@H]1CCn2cc(c3ccccc32)C2=C(C(=O)NC2=O)c2cn(c3ccccc23)CCO1 [Ruboxistaurin] + CC(=O)c1c(C)c2cnc(Nc3ccc(N4CCNCC4)cn3)nc2n(C2CCCC2)c1=O [Palbociclib] (partner 0.5 µM)
Summary of the method: as §1

[3] = compound: CN(C)C[C@@H]1CCn2cc(c3ccccc32)C2=C(C(=O)NC2=O)c2cn(c3ccccc23)CCO1 [Ruboxistaurin] + N=C(N)NC(=N)NCCc1ccccc1 [Phenformin] (partner 250 µM)
Summary of the method: as §1

Ruboxistaurin + Olaparib = compound: CN(C)C[C@@H]1CCn2cc(c3ccccc32)C2=C(C(=O)NC2=O)c2cn(c3ccccc23)CCO1 [Ruboxistaurin] + O=C(c1cc(Cc2n[nH]c(=O)c3ccccc23)ccc1F)N1CCN(C(=O)C2CC2)CC1 [Olaparib] (partner 8 µM)
Summary of the method: as §1

[4] = compound: CN(C)C[C@@H]1CCn2cc(c3ccccc32)C2=C(C(=O)NC2=O)c2cn(c3ccccc23)CCO1 [Ruboxistaurin] + Nc1nc2[nH]cc(CCc3ccc(C(=O)N[C@@H](CCC(=O)O)C(=O)O)cc3)c2c(=O)[nH]1 [Pemetrexed] (partner 0.2 µM)
Summary of the method: as §1

Row | Cell Line | relative viability ([1]; first compound 0.08 µM) | relative viability ([1]; first compound 0.8 µM) | relative viability ([1]; first compound 2.53 µM) | relative viability ([1]; first compound 8 µM) | relative viability ([2]; first compound 0.08 µM) | relative viability ([2]; first compound 0.8 µM) | relative viability ([2]; first compound 2.53 µM) | relative viability ([2]; first compound 8 µM) | relative viability ([3]; first compound 0.08 µM) | relative viability ([3]; first compound 0.8 µM) | relative viability ([3]; first compound 2.53 µM) | relative viability ([3]; first compound 8 µM) | relative viability (Ruboxistaurin + Olaparib; first compound 0.08 µM) | relative viability (Ruboxistaurin + Olaparib; first compound 0.8 µM) | relative viability (Ruboxistaurin + Olaparib; first compound 2.53 µM) | relative viability (Ruboxistaurin + Olaparib; first compound 8 µM) | relative viability ([4]; first compound 0.08 µM) | relative viability ([4]; first compound 0.8 µM) | relative viability ([4]; first compound 2.53 µM) | relative viability ([4]; first compound 8 µM)
1 | NCI-H1666 | 0.596 | 0.529 | 0.783 | 0.659 | 0.659 | 0.608 | 0.606 | 0.726 | 0.598 | 0.533 | 0.583 | 0.584 | 0.832 | 0.751 | 0.786 | 0.764 | 0.85 | 0.825 | 0.747 | 0.808
2 | NCI-H1734 | 1.1 | 0.984 | 1.11 | 0.445 | 0.354 | 0.328 | 0.367 | 0.312 | 0.495 | 0.342 | 0.406 | 0.323 | 0.647 | 0.518 | 0.601 | 0.514 | 0.425 | 0.394 | 0.4 | 0.4
3 | NCI-H1755 | 1.05 | 1 | 1.01 | 1.07 | 0.495 | 0.452 | 0.463 | 0.455 | 0.678 | 0.584 | 0.586 | 0.635 | 0.974 | 0.853 | 0.846 | 0.775 | 0.452 | 0.476 | 0.35 | 0.471
4 | NCI-H1792 | 0.903 | 0.892 | 0.916 | 0.933 | 0.632 | 0.617 | 0.645 | 0.669 | 0.32 | – | 0.247 | 0.243 | 0.517 | 0.453 | 0.287 | 0.414 | 0.845 | 0.659 | 0.749 | 0.584
5 | NCI-H1793 | 0.845 | 0.641 | 0.909 | 0.841 | 0.302 | – | 0.296 | 0.373 | 0.412 | 0.321 | 0.422 | 0.408 | 0.875 | – | 1.17 | 0.873 | 1.13 | – | 1.03 | 0.876
6 | NCI-H1915 | 1.02 | 0.918 | 0.891 | 0.967 | 0.542 | 0.482 | 0.536 | 0.421 | 0.35 | 0.349 | 0.363 | 0.376 | 0.241 | 0.26 | 0.268 | 0.25 | 0.508 | 0.439 | 0.443 | 0.426
7 | NCI-H1944 | 0.874 | 0.71 | 0.731 | 0.819 | 0.347 | 0.298 | 0.343 | 0.295 | 0.213 | 0.183 | 0.179 | 0.186 | 0.422 | 0.353 | 0.38 | 0.393 | 0.6 | 0.55 | 0.667 | 0.659
8 | NCI-H1975 | 0.93 | 0.821 | 0.906 | 0.826 | 0.648 | 0.512 | 0.637 | 0.605 | 0.431 | 0.392 | 0.414 | 0.418 | 0.882 | 0.784 | 0.788 | 0.713 | 0.328 | 0.276 | 0.301 | 0.286
9 | NCI-H1993 | 0.837 | 0.789 | 0.848 | 0.808 | 0.716 | 0.666 | 0.712 | 0.556 | 0.529 | 0.518 | 0.525 | 0.568 | 1.01 | 0.959 | 1.19 | 0.538 | 0.482 | 0.565 | 0.633 | 0.577
10 | NCI-H2009 | 1.02 | 0.956 | 0.931 | 1.13 | 0.218 | 0.234 | 0.242 | 0.221 | 0.579 | 0.442 | 0.536 | 0.502 | 0.764 | 0.593 | 0.748 | 0.699 | 1.05 | 1.08 | 1.02 | 1.07
11 | NCI-H2023 | 0.862 | 0.679 | 0.913 | 0.628 | 0.381 | 0.31 | 0.333 | 0.393 | 0.448 | 0.388 | 0.445 | 0.383 | 0.519 | 0.458 | 0.447 | 0.296 | 0.228 | 0.188 | 0.224 | 0.151
12 | NCI-H2085 | 0.902 | 0.76 | 0.754 | 0.721 | 0.472 | 0.479 | 0.452 | 0.56 | 0.789 | 0.655 | 0.745 | 0.674 | 0.808 | 0.703 | 0.769 | 0.909 | 1.07 | 0.868 | 0.944 | 0.904
13 | NCI-H2087 | 0.952 | 1.02 | 1.25 | 1.1 | 0.28 | 0.253 | 0.285 | 0.291 | 0.494 | 0.409 | 0.481 | 0.472 | 0.601 | 0.62 | 0.692 | 0.57 | 0.641 | 0.679 | 0.662 | 0.693
14 | NCI-H2126 | 0.751 | 0.703 | 0.774 | 0.73 | 0.341 | 0.384 | 0.367 | 0.395 | 0.573 | 0.52 | 0.541 | 0.52 | 0.888 | 0.887 | 0.915 | 0.936 | 0.699 | 0.65 | 0.674 | 0.623
15 | NCI-H2170 | 0.243 | 0.241 | 0.263 | 0.251 | 0.397 | 0.337 | 0.371 | 0.386 | 0.443 | 0.429 | 0.458 | 0.474 | 0.659 | 0.499 | 0.588 | 0.534 | 0.274 | 0.263 | 0.248 | 0.303
16 | NCI-H2228 | 1.51 | 1.1 | 1.14 | 0.911 | 0.845 | 0.631 | 0.863 | 0.693 | 0.345 | 0.256 | 0.419 | 0.269 | 0.643 | 0.564 | 0.889 | 0.696 | 0.387 | 0.335 | 0.337 | 0.322
